# Test results as given in ChEMBL document CHEMBL3991601, “The target landscape of clinical kinase drugs” (Science, 2017).
# Where a name gives a salt, the structure may show the parent alone. The source made the active and inactive calls. Rule as the data show it: actives have a measured Kd and inactives only a lower limit.
# Experiments:
# [1] = biological target: TRAF2 and NCK-interacting protein kinase (Homo sapiens, UniProt Q9UKE5)
# [2] = biological target: T1, Activin receptor type-1B (Homo sapiens, UniProt P36896)
# T1 sequence (P36896 whole entry): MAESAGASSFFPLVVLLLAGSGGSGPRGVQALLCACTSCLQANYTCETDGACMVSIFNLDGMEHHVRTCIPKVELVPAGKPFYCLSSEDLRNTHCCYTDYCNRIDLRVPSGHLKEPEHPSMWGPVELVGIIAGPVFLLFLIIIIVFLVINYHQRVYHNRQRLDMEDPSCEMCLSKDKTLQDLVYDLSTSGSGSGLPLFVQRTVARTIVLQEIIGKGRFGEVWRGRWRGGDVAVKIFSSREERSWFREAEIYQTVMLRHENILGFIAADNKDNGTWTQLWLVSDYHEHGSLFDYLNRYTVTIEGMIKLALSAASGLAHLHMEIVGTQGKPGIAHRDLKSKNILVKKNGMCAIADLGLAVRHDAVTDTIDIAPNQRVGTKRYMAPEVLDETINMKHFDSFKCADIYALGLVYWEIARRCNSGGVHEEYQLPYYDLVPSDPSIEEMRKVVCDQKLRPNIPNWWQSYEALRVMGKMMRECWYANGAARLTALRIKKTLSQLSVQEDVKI
# [3] = biological target: T2, Ephrin type-A receptor 1 (Homo sapiens, UniProt P21709)
# T2 sequence (P21709 whole entry): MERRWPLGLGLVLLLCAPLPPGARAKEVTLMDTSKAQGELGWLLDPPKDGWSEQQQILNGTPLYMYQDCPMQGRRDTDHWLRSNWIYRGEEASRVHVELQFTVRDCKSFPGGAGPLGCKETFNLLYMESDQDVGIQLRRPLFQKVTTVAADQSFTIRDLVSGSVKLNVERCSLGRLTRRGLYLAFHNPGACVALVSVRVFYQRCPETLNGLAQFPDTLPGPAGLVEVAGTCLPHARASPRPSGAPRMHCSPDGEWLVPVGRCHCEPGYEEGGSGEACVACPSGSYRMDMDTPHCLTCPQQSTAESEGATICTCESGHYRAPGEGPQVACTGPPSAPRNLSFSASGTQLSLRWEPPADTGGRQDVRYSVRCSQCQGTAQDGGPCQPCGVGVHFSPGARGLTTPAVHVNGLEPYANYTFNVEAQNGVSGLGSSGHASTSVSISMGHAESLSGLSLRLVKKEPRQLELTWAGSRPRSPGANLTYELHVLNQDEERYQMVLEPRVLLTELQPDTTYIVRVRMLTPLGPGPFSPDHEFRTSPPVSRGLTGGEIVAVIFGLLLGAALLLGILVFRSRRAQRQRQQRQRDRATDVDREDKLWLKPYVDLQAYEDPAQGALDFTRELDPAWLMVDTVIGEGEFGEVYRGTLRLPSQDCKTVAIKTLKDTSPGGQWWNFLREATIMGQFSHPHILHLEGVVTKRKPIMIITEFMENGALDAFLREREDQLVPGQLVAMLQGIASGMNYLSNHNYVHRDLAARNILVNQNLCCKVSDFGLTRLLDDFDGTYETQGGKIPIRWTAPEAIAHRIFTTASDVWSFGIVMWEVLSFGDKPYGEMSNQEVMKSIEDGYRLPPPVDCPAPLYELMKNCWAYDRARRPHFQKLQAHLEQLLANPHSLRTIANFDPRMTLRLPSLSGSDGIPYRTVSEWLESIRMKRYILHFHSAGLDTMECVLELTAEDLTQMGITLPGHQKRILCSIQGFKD
# [4] = biological target: T3, Ephrin type-B receptor 4 (Homo sapiens, UniProt P54760)
# T3 sequence (P54760 whole entry): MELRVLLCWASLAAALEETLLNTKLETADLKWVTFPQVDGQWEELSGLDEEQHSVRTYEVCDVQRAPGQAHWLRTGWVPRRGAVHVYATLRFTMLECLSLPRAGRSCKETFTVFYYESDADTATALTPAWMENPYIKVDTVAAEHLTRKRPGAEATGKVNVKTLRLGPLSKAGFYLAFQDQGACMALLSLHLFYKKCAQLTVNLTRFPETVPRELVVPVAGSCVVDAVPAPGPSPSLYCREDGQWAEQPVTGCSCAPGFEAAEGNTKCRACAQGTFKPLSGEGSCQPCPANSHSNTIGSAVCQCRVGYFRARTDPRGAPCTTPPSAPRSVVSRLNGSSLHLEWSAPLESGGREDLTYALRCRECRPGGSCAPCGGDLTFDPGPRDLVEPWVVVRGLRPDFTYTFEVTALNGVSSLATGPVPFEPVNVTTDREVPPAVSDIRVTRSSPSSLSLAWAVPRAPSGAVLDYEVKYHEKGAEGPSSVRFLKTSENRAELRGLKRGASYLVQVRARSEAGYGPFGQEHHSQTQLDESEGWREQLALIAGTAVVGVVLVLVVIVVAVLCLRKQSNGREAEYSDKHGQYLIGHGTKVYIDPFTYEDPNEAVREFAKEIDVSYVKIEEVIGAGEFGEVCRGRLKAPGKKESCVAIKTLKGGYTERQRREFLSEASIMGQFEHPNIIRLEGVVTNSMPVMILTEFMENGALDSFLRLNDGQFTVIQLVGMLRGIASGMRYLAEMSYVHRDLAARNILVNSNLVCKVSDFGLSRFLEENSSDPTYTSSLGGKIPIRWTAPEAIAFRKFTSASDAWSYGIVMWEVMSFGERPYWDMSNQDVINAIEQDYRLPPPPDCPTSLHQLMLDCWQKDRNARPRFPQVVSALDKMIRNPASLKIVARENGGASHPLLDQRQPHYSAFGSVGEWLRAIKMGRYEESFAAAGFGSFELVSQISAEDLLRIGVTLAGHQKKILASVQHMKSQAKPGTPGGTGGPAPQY
# [5] = biological target: Mitogen-activated protein kinase 8 (Homo sapiens, UniProt P45983)
# Sequence of Mitogen-activated protein kinase 8 (P45983 whole entry): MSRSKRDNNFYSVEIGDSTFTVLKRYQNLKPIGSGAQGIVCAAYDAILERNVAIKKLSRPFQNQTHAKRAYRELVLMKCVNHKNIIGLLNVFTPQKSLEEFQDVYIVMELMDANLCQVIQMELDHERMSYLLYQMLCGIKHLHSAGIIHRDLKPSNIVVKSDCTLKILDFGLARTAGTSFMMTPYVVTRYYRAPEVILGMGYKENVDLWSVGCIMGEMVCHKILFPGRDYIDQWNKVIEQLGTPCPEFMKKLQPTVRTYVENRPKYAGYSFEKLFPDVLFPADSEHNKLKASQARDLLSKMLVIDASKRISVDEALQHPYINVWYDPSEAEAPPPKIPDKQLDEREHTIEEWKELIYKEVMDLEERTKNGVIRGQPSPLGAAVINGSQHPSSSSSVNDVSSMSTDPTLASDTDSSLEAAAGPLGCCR
# [6] = biological target: Glycogen synthase kinase-3 beta (Homo sapiens, UniProt P49841)
# Sequence of Glycogen synthase kinase-3 beta (P49841 whole entry): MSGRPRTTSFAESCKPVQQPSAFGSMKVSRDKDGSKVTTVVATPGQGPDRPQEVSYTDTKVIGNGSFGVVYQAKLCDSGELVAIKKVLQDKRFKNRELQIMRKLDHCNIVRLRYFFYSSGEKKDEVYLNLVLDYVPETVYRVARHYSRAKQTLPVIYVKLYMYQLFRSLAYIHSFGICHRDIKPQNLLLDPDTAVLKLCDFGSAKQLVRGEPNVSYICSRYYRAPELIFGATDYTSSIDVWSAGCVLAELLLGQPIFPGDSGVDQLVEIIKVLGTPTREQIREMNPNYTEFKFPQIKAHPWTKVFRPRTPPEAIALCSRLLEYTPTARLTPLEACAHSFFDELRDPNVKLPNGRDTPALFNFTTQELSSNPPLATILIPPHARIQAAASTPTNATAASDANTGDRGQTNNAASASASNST
# [7] = biological target: STE20-like serine/threonine-protein kinase (Homo sapiens, UniProt Q9H2G2)
# Sequence of STE20-like serine/threonine-protein kinase (Q9H2G2 whole entry): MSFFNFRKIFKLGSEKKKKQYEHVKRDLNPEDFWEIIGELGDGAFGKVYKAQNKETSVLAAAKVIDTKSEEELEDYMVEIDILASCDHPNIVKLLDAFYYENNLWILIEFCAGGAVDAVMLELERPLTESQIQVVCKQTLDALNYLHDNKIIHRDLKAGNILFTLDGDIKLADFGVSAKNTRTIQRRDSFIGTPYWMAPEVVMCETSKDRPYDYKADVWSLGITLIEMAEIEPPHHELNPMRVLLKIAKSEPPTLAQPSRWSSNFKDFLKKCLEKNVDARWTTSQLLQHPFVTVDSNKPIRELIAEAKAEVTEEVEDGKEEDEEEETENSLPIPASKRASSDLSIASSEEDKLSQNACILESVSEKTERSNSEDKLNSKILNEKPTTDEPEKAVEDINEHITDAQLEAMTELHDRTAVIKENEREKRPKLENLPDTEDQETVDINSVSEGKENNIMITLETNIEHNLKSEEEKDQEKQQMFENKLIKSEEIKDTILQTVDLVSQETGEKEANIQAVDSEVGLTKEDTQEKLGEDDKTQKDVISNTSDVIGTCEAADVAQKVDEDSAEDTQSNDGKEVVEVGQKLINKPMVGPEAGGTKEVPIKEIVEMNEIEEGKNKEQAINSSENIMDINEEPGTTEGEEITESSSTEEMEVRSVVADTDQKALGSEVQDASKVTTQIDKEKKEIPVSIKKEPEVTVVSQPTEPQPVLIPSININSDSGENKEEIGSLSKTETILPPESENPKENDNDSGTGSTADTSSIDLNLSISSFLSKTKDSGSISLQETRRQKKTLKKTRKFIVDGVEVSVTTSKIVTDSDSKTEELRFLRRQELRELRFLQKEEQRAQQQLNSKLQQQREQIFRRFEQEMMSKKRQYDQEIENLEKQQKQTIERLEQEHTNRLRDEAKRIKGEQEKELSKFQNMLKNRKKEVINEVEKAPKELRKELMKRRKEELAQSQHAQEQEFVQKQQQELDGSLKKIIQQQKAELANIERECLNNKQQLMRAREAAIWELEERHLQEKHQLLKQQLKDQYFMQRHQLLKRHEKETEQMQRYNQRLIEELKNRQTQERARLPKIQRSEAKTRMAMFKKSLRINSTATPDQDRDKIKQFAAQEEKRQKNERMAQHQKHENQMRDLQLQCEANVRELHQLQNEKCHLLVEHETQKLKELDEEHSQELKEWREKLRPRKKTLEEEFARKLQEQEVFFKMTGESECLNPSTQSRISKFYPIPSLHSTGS
# Also: in the data inactive means no Kd found up to 30 µM.
# Sequence of TRAF2 and NCK-interacting protein kinase (Q9UKE5 whole entry): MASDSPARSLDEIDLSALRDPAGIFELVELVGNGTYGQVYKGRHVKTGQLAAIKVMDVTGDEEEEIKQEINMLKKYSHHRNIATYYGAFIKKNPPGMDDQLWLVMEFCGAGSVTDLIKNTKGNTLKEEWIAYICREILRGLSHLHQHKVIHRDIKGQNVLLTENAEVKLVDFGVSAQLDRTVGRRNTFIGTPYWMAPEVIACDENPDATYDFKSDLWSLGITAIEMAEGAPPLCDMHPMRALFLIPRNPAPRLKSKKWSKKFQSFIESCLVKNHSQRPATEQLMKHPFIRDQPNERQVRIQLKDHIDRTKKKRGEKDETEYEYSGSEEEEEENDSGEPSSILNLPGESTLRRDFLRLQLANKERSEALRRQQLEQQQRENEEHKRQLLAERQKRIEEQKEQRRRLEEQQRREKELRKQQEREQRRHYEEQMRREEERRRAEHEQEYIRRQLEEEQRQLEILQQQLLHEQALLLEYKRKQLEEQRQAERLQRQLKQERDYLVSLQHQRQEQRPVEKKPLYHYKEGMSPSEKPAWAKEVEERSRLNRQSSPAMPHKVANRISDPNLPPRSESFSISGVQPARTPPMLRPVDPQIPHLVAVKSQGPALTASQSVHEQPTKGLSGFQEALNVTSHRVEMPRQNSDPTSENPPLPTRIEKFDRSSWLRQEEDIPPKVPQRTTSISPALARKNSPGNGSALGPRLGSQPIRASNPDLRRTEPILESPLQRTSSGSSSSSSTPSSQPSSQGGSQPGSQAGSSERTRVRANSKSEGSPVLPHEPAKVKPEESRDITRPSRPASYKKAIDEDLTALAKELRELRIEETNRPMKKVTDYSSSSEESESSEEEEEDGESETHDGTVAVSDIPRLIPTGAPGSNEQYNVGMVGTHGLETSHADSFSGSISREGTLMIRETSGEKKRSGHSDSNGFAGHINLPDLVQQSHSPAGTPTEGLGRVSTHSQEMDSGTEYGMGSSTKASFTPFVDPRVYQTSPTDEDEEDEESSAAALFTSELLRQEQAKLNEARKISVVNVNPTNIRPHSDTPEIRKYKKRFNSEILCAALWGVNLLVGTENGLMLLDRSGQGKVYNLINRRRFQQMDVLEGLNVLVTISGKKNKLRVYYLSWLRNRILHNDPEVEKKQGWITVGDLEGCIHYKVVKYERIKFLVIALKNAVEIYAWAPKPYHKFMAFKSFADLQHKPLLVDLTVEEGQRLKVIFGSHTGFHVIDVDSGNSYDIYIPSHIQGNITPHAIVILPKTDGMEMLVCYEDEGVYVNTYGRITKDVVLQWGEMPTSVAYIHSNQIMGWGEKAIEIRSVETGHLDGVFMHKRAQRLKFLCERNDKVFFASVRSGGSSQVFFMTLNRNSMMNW
Kd [1],Kd [2],Kd [3],Kd [4],Kd [5],Kd [6],Kd [7],SMILES
> 30 µM (inactive),> 30 µM (inactive),> 30 µM (inactive),> 30 µM (inactive),0.356 µM (active),> 30 µM (inactive),> 30 µM (inactive),CCS(=O)(=O)N1CCN(c2ccc(Nc3ncc(C(N)=O)c(NC4CC4)n3)cc2)CC1 [Cerdulatinib Hydrochloride]
> 30 µM (inactive),> 30 µM (inactive),> 30 µM (inactive),> 30 µM (inactive),> 30 µM (inactive),> 30 µM (inactive),> 30 µM (inactive),COCC(=O)NC/C=C/c1ccc2ncnc(Nc3ccc(Oc4ccc(C)nc4)c(C)c3)c2c1 [CP-724714]
> 30 µM (inactive),> 30 µM (inactive),> 30 µM (inactive),> 30 µM (inactive),> 30 µM (inactive),> 30 µM (inactive),> 30 µM (inactive),Cc1nc(NC(=O)N2CCC[C@H]2C(N)=O)sc1-c1ccnc(C(C)(C)C(F)(F)F)c1 [ALPELISIB]

# The next lines start with the compound.
SMILES,Kd [1],Kd [2],Kd [3],Kd [4],Kd [5],Kd [6],Kd [7]
CCS(=O)(=O)c1cccc(-c2cc(C(=O)NC3CCN(C)CC3)c(C)c3[nH]c4ncc(C)cc4c23)c1 [TAK-901],> 30 µM (inactive),> 30 µM (inactive),> 30 µM (inactive),0.656 µM (active),> 30 µM (inactive),6.17 µM (active),1.35 µM (active)
O=C(Cc1ccc(-c2ccc(OCCN3CCOCC3)cc2)cn1)NCc1ccccc1 [TIRBANIBULIN],> 30 µM (inactive),> 30 µM (inactive),> 30 µM (inactive),> 30 µM (inactive),> 30 µM (inactive),> 30 µM (inactive),> 30 µM (inactive)
COc1cc2ncnc(Oc3cccc(NC(=O)Nc4cc(C(C)(C)C(F)(F)F)on4)c3)c2cc1OC [CEP-32496],> 30 µM (inactive),> 30 µM (inactive),> 30 µM (inactive),9.82 µM (active),1.47 µM (active),> 30 µM (inactive),> 30 µM (inactive)
C#Cc1cccc(Nc2ncnc3cc(OC)c(OCCCCCCC(=O)NO)cc23)c1 [CUDC-101],> 30 µM (inactive),> 30 µM (inactive),> 30 µM (inactive),> 30 µM (inactive),> 30 µM (inactive),> 30 µM (inactive),> 30 µM (inactive)
NC1(c2ccc(-c3nc4ccn5c(=O)[nH]nc5c4cc3-c3ccccc3)cc2)CCC1 [MK-2206],> 30 µM (inactive),> 30 µM (inactive),> 30 µM (inactive),> 30 µM (inactive),> 30 µM (inactive),> 30 µM (inactive),> 30 µM (inactive)
CO[C@H]1C[C@@H]2CC[C@@H](C)[C@@](O)(O2)C(=O)C(=O)N2CCCC[C@H]2C(=O)O[C@H]([C@H](C)C[C@@H]2CC[C@@H](OP(C)(C)=O)[C@H](OC)C2)CC(=O)[C@H](C)/C=C(\C)[C@@H](O)[C@@H](OC)C(=O)[C@H](C)C[C@H](C)/C=C/C=C/C=C/1C [RIDAFOROLIMUS],> 30 µM (inactive),> 30 µM (inactive),> 30 µM (inactive),> 30 µM (inactive),> 30 µM (inactive),> 30 µM (inactive),> 30 µM (inactive)
